pIC50: −log10 of the molar value.

The target in this assay is Human factor D (Homo sapiens (Human), UniProt P00746). Briefly: Human Factor D Assay. It counts as biochemical. The settings on record: human factor D 80 nM, substrate Z-L-Lys-SBzl, DTNB. On the procedure: Human factor D (purified from human serum, Complement Technology, Inc.) at 80 nM final concentration is incubated with test compound at various concentrations for 5 minutes at room temperature in 50 mM Tris, 1M NaCl, pH 7.5. A synthetic substrate Z-L-Lys-SBzl and DTNB (Ellman's reagent) are added to final concentrations of 100 μM each. The increase in color is recorded at OD405 nm in a microplate in kinetic mode over 30 minutes with 30 second time points in a spectrofluorimeter. IC50 values are calculated by non-linear regression from the percentage of inhibition of complement factor D activity as a function of test compound concentration.
Sequence of Human factor D (P00746 26-253): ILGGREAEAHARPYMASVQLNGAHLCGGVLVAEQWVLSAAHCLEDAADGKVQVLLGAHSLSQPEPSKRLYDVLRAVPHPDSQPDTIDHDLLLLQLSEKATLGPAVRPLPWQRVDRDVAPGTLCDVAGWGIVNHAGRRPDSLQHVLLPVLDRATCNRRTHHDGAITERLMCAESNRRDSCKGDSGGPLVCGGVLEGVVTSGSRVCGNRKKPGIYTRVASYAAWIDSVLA

Regarding `NC(=O)c1nn(CC(=O)N2C[C@H](F)C[C@H]2C(=O)Nc2cccc(-c3ccccc3Cl)c2F)c2ccc(-c3cn[nH]c3)cc12` [Compound 1], the pIC50 is more than 6.00.
The value for `NC(=O)c1nn(CC(=O)N2C[C@H](F)C[C@H]2C(=O)Nc2cccc(-c3ccccc3Cl)c2F)c2ccc(-c3cncnc3)cc12` [Compound 2] was more than 6.00; that for `NC(=O)c1nn(CC(=O)N2C[C@H](F)C[C@H]2C(=O)Nc2cccc(Br)n2)c2ccc(-c3ccc(N4CCOCC4)cc3)cc12` [Compound 3, 1-(2-((2S,4R)-2-((6-Bromopyridin-2-yl)carbamoyl)-4-fluoropyrrolidin-1-yl)-2-oxoethyl)-5-(4-morphlinophenyl)-1H-indazole-3-carboxamide] was more than 6.00; that for `NC(=O)c1nn(CC(=O)N2[C@@H]3C[C@@H]3C[C@H]2C(=O)Nc2cccc(Br)n2)c2ccc(-c3cncnc3)cc12` [Compound 4] was more than 6.00.
`NC(=O)c1nn(CC(=O)N2C[C@H](F)C[C@H]2C(=O)Nc2cccc(Br)n2)c2ccc(-c3cncnc3)cc12` [Compound 5, 1-(2-((2S,4R)-2-(6-bromopyridin-2-ylcarbamoyl)-4-fluoropyrrolidin-1-yl)-2-oxoethyl)-5-(pyrimidin-5-yl)-1H-indazole-3-carboxamide]: the pIC50 is more than 6.00.
The value for `NC(=O)c1nn(CC(=O)N2[C@@H]3C[C@@H]3C[C@H]2C(=O)Nc2cccc(-c3ccccc3Cl)c2F)c2ccc(-c3cncnc3)cc12` [Compound 6, 1-(2-((1R,3S,5R)-3-(2′-chloro-2-fluorobiphenyl-3-ylcarbamoyl)-2-azabicyclo[3.1.0]hexan-2-yl)-2-oxoethyl)-5-(pyrimidin-5-yl)-1H-indazole-3-carboxamide] was more than 6.00; that for `NC(=O)c1nn(CC(=O)N2[C@@H]3C[C@@H]3C[C@H]2C(=O)Nc2cccc(-c3ccccc3Cl)c2F)c2ccc(-c3ncccn3)cc12` [Compound 7, 1-(2-((1R,3S,5R)-3-(2′-chloro-2-fluorobiphenyl-3-ylcarbamoyl)-2-azabicyclo[3.1.0]hexan-2-yl)-2-oxoethyl)-5-(pyrimidin-2-yl)-1H-indazole-3-carboxamide] was more than 6.00.
To `NC(=O)c1nn(CC(=O)N2[C@@H]3C[C@@H]3C[C@H]2C(=O)Nc2cccc(OC(F)(F)F)c2F)c2ccc(-c3cncnc3)cc12` [Compound 8, 1-(2-((1R,3S,5R)-3-(2-fluoro-3-(trifluoromethoxy)phenylcarbamoyl)-2-azabicyclo[3.1.0]hexan-2-yl)-2-oxoethyl)-5-(pyrimidin-5-yl)-1H-indazole-3-carboxamide] belongs more than 6.00; to `NC(=O)c1nn(CC(=O)N2C[C@H](F)C[C@H]2C(=O)Nc2cccc(OC(F)(F)F)c2F)c2ccc(-c3cncnc3)cc12` [Compound 9, 1-(2-((2S,4R)-4-fluoro-2-(2-fluoro-3-(trifluoromethoxy)phenylcarbamoyl)pyrrolidin-1-yl)-2-oxoethyl)-5-(pyrimidin-5-yl)-1H-indazole-3-carboxamide], more than 6.00.
To `NC(=O)c1nn(CC(=O)N2C[C@H](F)C[C@H]2C(=O)Nc2cccc(-c3ccccc3Cl)c2F)c2ccc(-c3cnc(N4CCCC4)nc3)cc12` [Compound 10] belongs more than 6.00.
On to `NC(=O)c1nn(CC(=O)N2[C@@H]3C[C@@H]3C[C@H]2C(=O)Nc2cccc(Br)n2)c2ccc(-c3cnc(N4CCCC4)nc3)cc12` [Compound 11], for which the pIC50 is more than 6.00.
The value for `NC(=O)c1nn(CC(=O)N2C[C@H](F)C[C@H]2C(=O)Nc2cccc(-c3ccccc3Cl)c2F)c2ccc(-c3ccc(F)nc3)cc12` [Compound 12, 1-(2-((2S,4R)-2-((2′-Chloro-2-fluoro-[1,1′-biphenyl]-3-yl)carbamoyl)-4-fluoropyrrolidin-1-yl)-2-oxoethyl)-5-(6-fluoropyridin-3-yl)-1H-indazole-3-carboxamide] was more than 6.00; that for `NC(=O)c1nn(CC(=O)N2[C@@H]3C[C@@H]3C[C@H]2C(=O)Nc2cccc(-c3ccccc3Cl)c2F)c2ccc(-c3ccc(F)nc3)cc12` [Compound 13, 1-(2-((lR,3S,5R)-3-(2′-chloro-2-fluorobiphenyl-3-ylcarbamoyl)-2-azabicyclo[3.1.0]hexan-2-yl)-2-oxoethyl)-5-(6-fluoropyridin-3-yl)-1H-indazole-3-carboxamide] was more than 6.00; that for `CC(=O)c1cn(CC(=O)N2C[C@H](F)C[C@H]2C(=O)Nc2cccc(Br)n2)c2ccc(-c3cncnc3)cc12` [Compound 14, (2S,4R)-1-(2-(3-acetyl-5-(pyrimidin-5-yl)-1H-indol-1-yl)acetyl)-N-(6-bromopyridin-2-yl)-4-fluoropyrrolidine-2-carboxamide] was more than 6.00.
The value for `CC(=O)c1cn(CC(=O)N2[C@@H]3C[C@@H]3C[C@H]2C(=O)Nc2cccc(-c3ccccc3Cl)c2F)c2ccc(-c3cncnc3)cc12` [Compound 15, (1R,3S,5R)-2-(2-(3-acetyl-5-(pyrimidin-5-yl)-1H-indol-1-yl)acetyl)-N-(2′-chloro-2-fluorobiphenyl-3-yl)-2-azabicyclo[3.1.0] hexane-3-carboxamide] was more than 6.00; that for `CC(=O)c1cn(CC(=O)N2C[C@H](F)C[C@H]2C(=O)Nc2cccc(-c3ccccc3Cl)c2F)c2ccc(N3CCN(C(C)=O)CC3)cc12` [Compound 16, (2S,4R)-1-(2-(3-acetyl-5-(4-acetylpiperazin-1-yl)-1H-indol-1-yl)acetyl)-N-(2′-chloro-2-fluorobiphenyl-3-yl)-4-fluoropyrrolidine-2-carboxamide] was more than 6.00.
The value for `CC(=O)c1cn(CC(=O)N2[C@@H]3C[C@@H]3C[C@H]2C(=O)Nc2cccc(Br)n2)c2ccc(-c3cncnc3)cc12` [Compound 17, (1R,3S,5R)-2-(2-(3-acetyl-5-(pyrimidin-5-yl)-1H-indol-1-yl)acetyl)-N-(6-bromopyridin-2-yl)-2-azabicyclo[3.1.0] hexane-3-carboxamide] was more than 6.00; that for `NC(=O)c1nn(CC(=O)N2C[C@H](F)C[C@H]2C(=O)NCc2cccc(Cl)c2F)c2cnc(-c3cncnc3)cc12` [Compound 18, 1-(2-((2S,4R)-2-(3-chloro-2-fluorobenzylcarbamoyl)-4-fluoropyrrolidin-1-yl)-2-oxoethyl)-5-(pyrimidin-5-yl)-1H-pyrazolo[3,4-c]pyridine-3-carboxamide] was more than 6.00.
`NC(=O)c1nn(CC(=O)N2C[C@H](F)C[C@H]2C(=O)Nc2cccc(-c3ccccc3Cl)c2F)c2cnc(-c3cncnc3)cc12` [Compound 19, 1-(2-((2S,4R)-2-(2′-chloro-2-fluorobiphenyl-3-ylcarbamoyl)-4-fluoropyrrolidin-1-yl)-2-oxoethyl)-5-(pyrimidin-5-yl)-1H-pyrazolo[3,4-c]pyridine-3-carboxamide]: the pIC50 is more than 6.00.
To `CC(=O)c1cn(CC(=O)N2C[C@H](F)C[C@H]2C(=O)Nc2cccc(-c3ccccc3Cl)c2F)c2ccc(-c3ccnnc3)cc12` [Compound 20, (2S,4R)-1-(2-(3-Acetyl-5-(pryridazin-4-yl)-1H-indol-1-yl)acetyl)-N-(2′-chloro-2-fluoro-[1,1′-biphenyl]-3-yl)-4-fluoropyrrolidine-2-carboxamide] belongs more than 6.00; to `COc1ncc(-c2ccc3c(c2)c(C(C)=O)cn3CC(=O)N2C[C@H](F)C[C@H]2C(=O)Nc2cccc(Br)n2)cn1` [Compound 21, (2S,4R)-1-(2-(3-acetyl-5-(2-methoxypyrimidin-5-yl)-1H-indol-1-yl)acetyl)-N-(6-bromopyridin-2-yl)-4-fluoropyrrolidine-2-carboxamide], more than 6.00.

By pIC50 is commonly meant the IC50 on a negative log10 scale, so that one unit is a factor of ten. A lower pIC50 goes with a high IC50.
